Data taken from patent publication US7166622B2, “Substituted phenylsulfonamide inhibitors of beta amyloid production” (Wyeth, priority 2002, dated 2007).
“And” between values parts separate entries of the source, which are not always exact repeats. Equal values may be shown once. Read-outs that look alike come from different tables or passages of the source. Values belong to the compound of their own block, whether it stands above or below them.

How the values were obtained:
CHO-K1 cells = assay: Toxicity in RRA (loss of luciferase signal); conditions: toxicity = loss of signal (<0.75 fold increase)
beta amyloid production = assay: Repressor Release Assay (RRA); format: cell-based; conditions: for fold induction at 20 µg/mL / fold induction at 10 µg/mL: read-out: APPI Fold Increase; for APPI % of Example #98: relative to Example 98
Experimental: CHO-K1 cells were cultured in whole DMEM media (DMEM—High Glucose with 10% fetal bovine serum, 1% Non-essential Amino Acids, and 1% Penicillin-Streptomycin) at 37° C. with 5% CO2. Two million cells were plated into 10-cm dishes 24 hrs prior to transfection.
Transient transfections were completed as recommended by Gibco BRL using their Lipofectamine Plus system. First, 6 μg of pRSVO-luc and 6 μg of APP-lacI construct DNA were added to 460 μL Opti-Mem transfection media and incubated with 30 μL Plus reagent for 15 minutes. Then, a lipid mixture of 40 μL Lipofectamine reagent and 460 μL Opti-Mem transfection media was incubated with the DNA-Plus reagent mixture for 15 minutes. During the DNA-lipid incubation, the CHO-K1 cells were washed once and covered in 5.0 mL DMEM media without Penicillin-Streptomycin. The DNA-lipid preparation was then layered onto these cells and incubated at 37° C. overnight.
[…] transfected cells per well (100 μL total volume) were plated into sterile, opaque Packard 96-well Culture-Plates in clear DMEM whole media (DMEM—without phenol red) and incubated at 37° C. with 5% CO2 for 3-5 hours.
Compounds were diluted using two different protocols; one protocol was used for compounds supplied neat (weighed powder in vial) and the other protocol was used for compounds supplied in solution (20 mM in DMSO in 96-well plates). For both protocols, 25 mM Hepes and 25 mM Hepes/1% DMSO were prepared fresh to be used as diluent. The Hepes/DMSO was used as the diluent control on all experimental plates.
The following table depicts the steps for compound dilution (please note that the last step was the addition of compound to cells/media in tissue culture plate).
Because some compounds were present in 96-well format at 20 mM, the following represents the protocol for their dilution (note that an average molecular weight of these compounds was used to calculate these dilutions and as above, the last step was the addition of compound to cells/media in tissue culture plate).
Once the compounds were diluted, they were applied in duplicate on cells in tissue culture plates (prepared above). Cells were incubated with compound at 37° C. with 5% CO2 for an additional 36-48 hours.
Luciferase assays (LucLite reagent, Packard) were performed and were read on a Packard TopCount instrument. Media was removed from each 96-well plate and replaced with 100 μL PBS per well (with Mg^2+ and Ca^2+). An equal volume (100 μL) of the LucLite lysis/substrate buffer was added to each well and the plates were sealed and mixed in the dark on a rotary shaker for 15-30 minutes at room temperature. Luciferase readings were then taken on the TopCount instrument. Measurements were expressed as relative light units (RLU) and are calculated and analyzed in MS Excel as follows: […]

[1] = Conc 20 μg/ml, 1=non-toxic, 0=toxic
[2] = Conc 20 μg/ml, luciferase activity (RLU) over diluent control
[3] = Conc 10 μg/ml, luciferase activity over diluent control
[4] = Conc 20 μg/ml, luciferase activity over diluent control

Compound: CCCCCC[C@@H](CCC)[C@@H](CO)NS(=O)(=O)c1ccc(Br)cc1 [Example 79, 4-bromo-N-[(1S,2R)-1-(hydroxymethyl)-2-propyloctyl]benzenesulfonamide]
(%)APPI Toxicity (CHO-K1 cells; [1]): 1 (1=non-toxic)
fold induction at 20 µg/mL (beta amyloid production; [2]): 1.5

Compound: C=CCCC(O)[C@@H](NS(=O)(=O)c1cccc(Cl)c1)[C@@H](C)CC (stereo partly drawn) [Example 200, 3-chloro-N-{(1S)-2-hydroxy-1-[(1S)-1-methylpropyl]-5-hexenyl}benzenesulfonamide]
(%)APPI Toxicity (CHO-K1 cells; Conc 10 μg/ml): 1 (1=non-toxic)
fold induction at 10 µg/mL (beta amyloid production; [3]): 1.85

Compound: CC(C)C[C@@H](C(C)C)[C@@H](CO)NS(=O)(=O)c1ccc(Br)cc1 [Example 87, 4-bromo-N-[(1S,2S)-1-(hydroxymethyl)-2-isopropyl-4-methylpentyl]benzenesulfonamide]
(%)APPI Toxicity (CHO-K1 cells; [1]): 1 (1=non-toxic)
fold induction at 20 µg/mL (beta amyloid production; [2]): 8.8

Compound: CC[C@H](C)[C@H](NS(=O)(=O)c1ccc(Br)cc1)C(O)CC(C)C (stereo partly drawn) [Example 150, 4-bromo-N-{(S)-2-hydroxy-4-methyl-1-[(1S)-1-methylpropyl]pentyl}benzenesulfonamide]
(%)APPI Toxicity (CHO-K1 cells; Conc 10 μg/ml): 1 (1=non-toxic)

Compound: CC[C@H](C)[C@H](NS(=O)(=O)c1ccc(F)cc1)C(O)c1ccccc1C (stereo partly drawn) [Example 131, 4-fluoro-N{(1S,2S)-1-[hydroxy-(2-methylphenyl)methyl]-2-methylbutyl}benzenesulfonamide]
(%)APPI Toxicity (CHO-K1 cells; Conc 10 μg/ml): 1 (1=non-toxic)
APPI Fold Increase (beta amyloid production; [3]): 1.65 fold
APPI % of Example #98 (beta amyloid production; Conc 10 μg/ml): 64.57%

Compound: CC[C@H](C)[C@H](NS(=O)(=O)c1ccc(F)cc1)C(O)c1ccc(Cl)cc1 (stereo partly drawn) [Example 136, N-{(1S,2S)-1-[(4-chlorophenyl)(hydroxy)methyl]-2-methylbutyl}-4-fluorobenzenesulfonamide]
(%)APPI Toxicity (CHO-K1 cells; Conc 10 μg/ml): 1 (1=non-toxic)
fold induction at 10 µg/mL (beta amyloid production; [3]): 3.04

Compound: CC(C)[C@@H](CO)NS(=O)(=O)c1ccccc1F [Example 119, 2-fluoro-N-[(1S)-1-(hydroxymethyl)-2-methylpropyl]benzenesulfonamide]
(%)APPI Toxicity (CHO-K1 cells; Conc 20 μg/ml): 1 (1=non-toxic)
fold induction at 20 µg/mL (beta amyloid production; [4]): 1.5

Compound: 3-chloro-N-{(1S,3E)-2-hydroxy-3-methyl-2-[(1 F)-1-methyl-1-propenyl]-1-[(1S)-1-methylpropyl]-3-pentenyl}benzenesulfonamide [Example 259]
(%)APPI Toxicity (CHO-K1 cells; Conc 0.3 μg/ml): 1 (1=non-toxic)
(%)APPI Toxicity (CHO-K1 cells; Conc 1 μg/ml): 1 (1=non-toxic)
(%)APPI Toxicity (CHO-K1 cells; Conc 3 μg/ml): 1 (1=non-toxic)
(%)APPI Toxicity (CHO-K1 cells; Conc 10 μg/ml): 1 (1=non-toxic)
(%)APPI Toxicity (CHO-K1 cells; Conc 20 μg/ml): 1 (1=non-toxic)
APPI Fold Increase (beta amyloid production; Conc 0.3 μg/ml, luciferase activity over diluent control): 1.7 fold
APPI % of Example #98 (beta amyloid production; Conc 0.3 μg/ml): 31.1%
APPI Fold Increase (beta amyloid production; Conc 1 μg/ml, luciferase activity over diluent control): 1.7 fold
APPI % of Example #98 (beta amyloid production; Conc 1 μg/ml): 31.1%
APPI Fold Increase (beta amyloid production; Conc 3 μg/ml, luciferase activity over diluent control): 1.7 fold
APPI % of Example #98 (beta amyloid production; Conc 3 μg/ml): 31.5%
APPI Fold Increase (beta amyloid production; [3]): 2.19 fold and 1.6 fold and 1.7 fold
APPI Fold Increase (beta amyloid production; [4]): 4.4 fold
APPI % of Example #98 (beta amyloid production; Conc 20 μg/ml): 119.7%

Compound: CCCCCC(O)[C@@H](NS(=O)(=O)c1ccc(Cl)cc1)[C@@H](C)CC (stereo partly drawn) [Example 168, 4-chloro-N-{(1S)-2-hydroxy-1-[(1S)-1-methylpropyl]heptyl}benzenesulfonamide]
(%)APPI Toxicity (CHO-K1 cells; Conc 10 μg/ml): 1 (1=non-toxic)

Compound: CC[C@H](C)[C@H](NS(=O)(=O)c1ccc(Br)cc1)C(O)(CC(C)C)CC(C)C [Example 214, 4-bromo-N-{(1S)-2-hydroxy-2-isobutyl-4-methyl-1-[(1S)-1-methylpropyl]pentyl} benzenesulfonamide]
(%)APPI Toxicity (CHO-K1 cells; Conc 10 μg/ml): 1 (1=non-toxic)

Compound: COc1ccc([C@@H](C)[C@@H](CO)NS(=O)(=O)c2ccc(Br)cc2)cc1 [Example 71, 4-bromo-N-[(1S,2R)-1-(hydroxymethyl)-2-(4-methoxyphenyl)propyl]benzenesulfonamide]
(%)APPI Toxicity (CHO-K1 cells; [1]): 1 (1=non-toxic)
fold induction at 20 µg/mL (beta amyloid production; [2]): 1.9

Compound: C[C@H](NS(=O)(=O)c1ccccc1F)[C@@H](O)c1ccccc1 [Example 111, 2-fluoro-N-[(1 S,2 S)-2-hydroxy-1-methyl-2-phenylethyl] benzenesulfonamide]
(%)APPI Toxicity (CHO-K1 cells; Conc 20 μg/ml): 1 (1=non-toxic)
APPI Fold Increase (beta amyloid production; [4]): 1.7 fold
APPI % of Example #98 (beta amyloid production; Conc 20 μg/ml): 47.8%

Compound: CC(C)[C@@](C)(CO)NS(=O)(=O)c1ccc(Br)cc1 [Example 34, 4-bromo-N-[(1 S)-1-(hydroxymethyl)-1,2-dimethylpropyl]benzenesulfonamide]
(%)APPI Toxicity (CHO-K1 cells; Conc 20 μg/ml): 1 (1=non-toxic)
fold induction at 20 µg/mL (beta amyloid production; [4]): 4.2

Compound: C[C@@H](c1ccco1)[C@@H](CO)NS(=O)(=O)c1ccc(Br)cc1 [Example 84, 4-bromo-N-[(1S,2R)-2-(2-furyl)-1-(hydroxymethyl)propyl]benzenesulfonamide]
(%)APPI Toxicity (CHO-K1 cells; [1]): 1 (1=non-toxic)
fold induction at 20 µg/mL (beta amyloid production; [2]): 3.4

Compound: C=CCC(O)[C@@H](NS(=O)(=O)c1ccc(Cl)cc1)[C@@H](C)CC (stereo partly drawn) [Example 175, 4-chloro-N-{(1S)-2-hydroxy-1-[(1S)-1-methylpropyl]-4-pentenyl}benzenesulfonamide]
(%)APPI Toxicity (CHO-K1 cells; Conc 10 μg/ml): 1 (1=non-toxic)

Compound: CCCCCC(O)(CCCCC)[C@@H](NS(=O)(=O)c1ccc(Br)cc1)[C@@H](C)CC [Example 212, 4-bromo-N-{(1S)-2-hydroxy-1-[(1S)-1-methylpropyl]-2-pentylheptyl}benzenesulfonamide]
(%)APPI Toxicity (CHO-K1 cells; Conc 10 μg/ml): 1 (1=non-toxic)

Compound: CC[C@H](C)[C@H](NS(=O)(=O)c1ccccc1F)C(O)C1CCCC1 (stereo partly shown) [Example 202]
APPI Fold Increase (beta amyloid production; [3]): 1.62 fold
APPI % of Example #98 (beta amyloid production; Conc 10 μg/ml): 55.79%

Compound: CC[C@H](C)[C@@H](CO)N(CCNC(=O)OC(C)(C)C)S(=O)(=O)c1ccc(Cl)cc1 [Example 42, tert-butyl 2-{([4-chlorophenyl)sulfonyl][(1S,2S)-1-(hydroxymethyl)-2-methylbutyl]amino} ethyl carbamate]
APPI Fold Increase (beta amyloid production; [4]): 1.9 fold
APPI % of Example #98 (beta amyloid production; Conc 20 μg/ml): 71.7%

Compound: CCCCCCC(O)[C@@H](NS(=O)(=O)c1ccc(F)cc1)[C@@H](C)CC (stereo partly drawn) [Example 128, 4-fluoro-N-{(1S)-2-hydroxy-1-[(1S)-1-methylpropyl]octyl}benzenesulfonamide]
(%)APPI Toxicity (CHO-K1 cells; Conc 10 μg/ml): 1 (1=non-toxic)

Compound: CCCCCC(O)[C@@H](NS(=O)(=O)c1ccc(F)cc1)[C@@H](C)CC (stereo partly drawn) [Example 129, 4-fluoro-N-{(1S)-2-hydroxy-1-[(1S)-1-methylpropyl]heptyl}benzenesulfonamide]
(%)APPI Toxicity (CHO-K1 cells; Conc 10 μg/ml): 1 (1=non-toxic)

Compound: CCCCCCC(O)(CCCCCC)[C@@H](NS(=O)(=O)c1ccc(F)cc1)[C@@H](C)CC [Example 236, 4-fluoro-N-{(1S)-2-hexyl-2-hydroxy-1-[(1S)-1-methylpropyl]octyl}benzenesulfonamide]
(%)APPI Toxicity (CHO-K1 cells; Conc 10 μg/ml): 1 (1=non-toxic)

Compound: CC[C@H](C)[C@H](NS(=O)(=O)c1ccc(Cl)cc1)C(O)C1CCCC1 (stereo partly drawn) [Example 166, 4-chloro-N-{(1S,2S)-1-[cyclopentyl(hydroxy)methyl]-2-methylbutyl}benzenesulfonamide]
(%)APPI Toxicity (CHO-K1 cells; Conc 10 μg/ml): 1 (1=non-toxic)

fold increase in luciferase activity (beta amyloid production; at 10 μg/mL, luciferase activity over diluent control, transfected CHO-K1 cells): 6.0-28.1 fold increase
Compound: C[C@H](NC(=O)Cc1cc(F)cc(F)c1)C(=O)N[C@H](C(=O)OC(C)(C)C)c1ccccc1 [DAPT, reference compound]

Compound: CC[C@H](C)[C@H](NS(=O)(=O)c1ccc(F)cc1)C(O)(c1cccc2ccccc12)c1cccc2ccccc12 [Example 248, 4-fluoro-N-((1S,2S)-1-{hydroxy[di(1-naphthyl)]methyl}-2-methylbutyl)benzenesulfonamide]
(%)APPI Toxicity (CHO-K1 cells; Conc 10 μg/ml): 1 (1=non-toxic)

Compound: CC[C@H](C)[C@H](NS(=O)(=O)c1ccc(Br)cc1)C(O)C(C)(C)C (stereo partly drawn) [Example 149, 4-bromo-N-{(1S)-2-hydroxy-3,3-dimethyl-1-[(1S)-1-methylpropyl]butyl}benzenesulfonamide]
(%)APPI Toxicity (CHO-K1 cells; Conc 10 μg/ml): 1 (1=non-toxic)
